The test system of one assay is N. gonorrhoeae WHO Q. In words: Liquid broth MIC in Fastidious broth. Particulars: Neisseria gonorrhoeae, read-out: Minimum Inhibitory Concentration (MIC), N. gonorrhoeae WHO Q.
For assay [1], the target named is T1, PBP1a from Acinetobacter baumannii (ATCC 19606) (Acinetobacter baumannii, UniProt A0ABX6CK30).
T1 sequence (A0ABX6CK30 1-851): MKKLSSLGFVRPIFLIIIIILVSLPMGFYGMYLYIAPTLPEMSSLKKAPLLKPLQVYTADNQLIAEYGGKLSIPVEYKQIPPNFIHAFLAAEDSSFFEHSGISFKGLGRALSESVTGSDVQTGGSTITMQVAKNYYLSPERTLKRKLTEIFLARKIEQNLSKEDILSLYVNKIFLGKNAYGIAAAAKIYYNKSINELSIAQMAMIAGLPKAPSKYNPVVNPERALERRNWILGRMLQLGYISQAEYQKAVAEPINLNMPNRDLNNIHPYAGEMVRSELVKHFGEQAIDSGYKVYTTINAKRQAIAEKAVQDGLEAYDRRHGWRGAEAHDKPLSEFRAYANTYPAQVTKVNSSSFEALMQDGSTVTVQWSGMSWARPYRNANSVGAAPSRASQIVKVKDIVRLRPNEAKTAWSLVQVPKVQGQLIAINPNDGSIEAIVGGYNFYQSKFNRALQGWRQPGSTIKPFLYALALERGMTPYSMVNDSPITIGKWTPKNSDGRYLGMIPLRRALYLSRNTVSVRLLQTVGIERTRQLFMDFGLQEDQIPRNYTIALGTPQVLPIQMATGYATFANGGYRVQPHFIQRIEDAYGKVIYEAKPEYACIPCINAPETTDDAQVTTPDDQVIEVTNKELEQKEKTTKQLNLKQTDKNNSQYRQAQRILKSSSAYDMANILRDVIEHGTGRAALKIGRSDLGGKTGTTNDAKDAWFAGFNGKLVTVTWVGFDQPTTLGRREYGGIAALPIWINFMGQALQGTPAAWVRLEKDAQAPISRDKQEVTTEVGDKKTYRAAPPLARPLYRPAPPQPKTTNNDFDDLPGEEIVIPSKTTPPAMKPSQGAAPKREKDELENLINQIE
In words: Bocillin-FL fluorescence polarization competition binding, A. baumannii PBP1a. Particulars: fluorescence polarization competition binding assay using Bocillin-FL; read-out: A. baumannii PBP1a Potency. An outline of the steps:
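Purified PBPs pre-incubated with inhibitor (E. coli PBP3 1.5 μM, 30 min; P. aeruginosa PBP3 0.75 μM, A. baumannii PBP1a 1 μM and PBP3 0.2 μM, 15 min), then Bocillin-FL 0.1 μM (0.05 μM for PBP1a) added; FP read up to 60 min. EC50 = concentration halving bound Bocillin-FL.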

For another assay, the system named is P. aeruginosa ATCC 35151. In words: microbe, parasite or virus in culture. It counts as cell-based. Particulars: Pseudomonas aeruginosa, ATCC35151, read-out: Minimum inhibitory concentration, P. aeruginosa ATCC 35151.
For the next assay, the system named is P. aeruginosa CDC-0054. The assay is described as follows: microbe, parasite or virus in culture. Particulars: Pseudomonas aeruginosa, CDC0054, read-out: Minimum inhibitory concentration, P. aeruginosa CDC-0054. It counts as cell-based.
For another assay, the system named is A. baumannii CDC-0036. The assay is described as follows: microbe, parasite or virus in culture. The format is cell-based. Particulars: Acinetobacter baumannii, CDC0036, read-out: MIC, A. baumannii CDC-0036.

Each structure is given as a SMILES string. In brackets after ≈: the same amount, converted by molar mass.

Consider `O=C(O)c1cccc2c1OB(O)[C@@H](NC(=O)[C@@H](NC(=O)c1cnc3n(c1=O)CCS3)c1ccc(P(=O)(O)O)cc1)C2` (single isomer, unassigned) [Example 196], for which, in the assay with N. gonorrhoeae WHO Q, the MIC lay within 16 to 32 µg/mL (≈ 26.7 to 53.3 µM).
With `O=C(O)c1cccc2c1OB(O)[C@@H](NC(=O)[C@H](NC(=O)c1cnc3n(c1=O)CCS3)c1ccc(P(=O)(O)O)cc1)C2` (single isomer, unassigned) [Example 197], the MIC in the assay on N. gonorrhoeae WHO Q is 16 to 32 µg/mL (≈ 26.7 to 53.3 µM).
With `CCN1CCN(C(=O)NC(C(=O)N[C@H]2Cc3cccc(C(=O)O)c3OB2O)c2ccc(P(=O)(O)O)c(F)c2O)C(=O)C1=O` (stereo partly drawn) [Example 198, (3R)-3-(2-(4-ethyl-2,3-dioxopiperazine-1-carboxamido)-2-(3-fluoro-2-hydroxy-4-phosphonophenyl)acetamido)-2-hydroxy-3,4-dihydro-2H-benzo[e][1,2]oxaborinine-8-carboxylic acid], the MIC in the assay with N. gonorrhoeae WHO Q was in the range of 1 to 2 µg/mL (≈ 1.61 to 3.21 µM).
`CN(CCN1CCN(C(=O)N[C@@H](C(=O)N[C@H]2Cc3ccc(F)c(C(=O)O)c3OB2O)c2cc(F)c(O)c(O)c2Cl)C(=O)C1=O)Cc1nccs1` [Example 200, (R)-3-((R)-2-(2-chloro-5-fluoro-3,4-dihydroxyphenyl)-2-(4-(2-(methyl(thiazol-2-ylmethyl)amino)ethyl)-2,3-dioxopiperazine-1-carboxamido)acetamido)-7-fluoro-2-hydroxy-3,4-dihydro-2H-benzo[e][1,2]oxaborinine-8-carboxylic acid]: the IC50 in assay [1] is over 250 µM. Moreover, the MIC was under 1 µg/mL in the assay with P. aeruginosa ATCC 35151, under 1 µg/mL in the assay with P. aeruginosa CDC-0054, 2 to 4 µg/mL (≈ 2.71 to 5.43 µM) in the assay with A. baumannii CDC-0036 and 16 to 32 µg/mL (≈ 21.7 to 43.4 µM) with N. gonorrhoeae WHO Q.
Take `CN(CCN1CCN(C(=O)N[C@@H](C(=O)N[C@H]2Cc3ccc(F)c(C(=O)O)c3OB2O)c2cc(F)c(O)c(O)c2Cl)C(=O)C1=O)Cc1cccnc1` [Example 201, (R)-3-((R)-2-(2-chloro-5-fluoro-3,4-dihydroxyphenyl)-2-(4-(2-(methyl(pyridin-3-ylmethyl)amino)ethyl)-2,3-dioxopiperazine-1-carboxamido)acetamido)-7-fluoro-2-hydroxy-3,4-dihydro-2H-benzo[e][1,2]oxaborinine-8-carboxylic acid]: the IC50 in assay [1] is over 250 µM. Further, the MIC in the assay with P. aeruginosa ATCC 35151 was under 1 µg/mL; with P. aeruginosa CDC-0054, under 1 µg/mL; with A. baumannii CDC-0036, 2 to 4 µg/mL (≈ 2.74 to 5.47 µM); in the assay on N. gonorrhoeae WHO Q, 16 to 32 µg/mL (≈ 21.9 to 43.8 µM).
As for `O=C(NCCCN1CCN(C(=O)NC(C(=O)N[C@H]2Cc3ccc(F)c(C(=O)O)c3OB2O)c2cc(F)c(O)c(O)c2Cl)C(=O)C1=O)c1ccccc1` (stereo partly drawn) [Example 202, (3R)-3-(2-(4-(3-benzamidopropyl)-2,3-dioxopiperazine-1-carboxamido)-2-(2-chloro-5-fluoro-3,4-dihydroxyphenyl)acetamido)-7-fluoro-2-hydroxy-3,4-dihydro-2H-benzo[e][1,2]oxaborinine-8-carboxylic acid], the IC50 in assay [1] was over 250 µM. For the same compound, the MIC in the assay on P. aeruginosa ATCC 35151 was under 1 µg/mL; with P. aeruginosa CDC-0054, under 1 µg/mL; in the assay with A. baumannii CDC-0036, 2 to 4 µg/mL (≈ 2.69 to 5.38 µM); in the assay with N. gonorrhoeae WHO Q it was over 64 µg/mL.
As to `O=C(NCCCN1CCN(C(=O)NC(C(=O)N[C@H]2Cc3ccc(F)c(C(=O)O)c3OB2O)c2cc(F)c(O)c(O)c2Cl)C(=O)C1=O)Nc1cccc(O)c1` (stereo partly drawn) [Example 206, (3R)-3-(2-(2-chloro-5-fluoro-3,4-dihydroxyphenyl)-2-(4-(3-(3-(3-hydroxyphenyl)ureido)propyl)-2,3-dioxopiperazine-1-carboxamido)acetamido)-7-fluoro-2-hydroxy-3,4-dihydro-2H-benzo[e][1,2]oxaborinine-8-carboxylic acid], the IC50 in assay [1] is over 250 µM. For the same compound, the MIC in the assay on P. aeruginosa ATCC 35151 is under 1 µg/mL; with P. aeruginosa CDC-0054, under 1 µg/mL; in the assay with A. baumannii CDC-0036, under 1 µg/mL; in the assay on N. gonorrhoeae WHO Q, 16 to 32 µg/mL (≈ 20.6 to 41.3 µM).
For the compound `O=C(NCCN1CCN(C(=O)NC(C(=O)N[C@H]2Cc3ccc(F)c(C(=O)O)c3OB2O)c2cc(F)c(O)c(O)c2Cl)C(=O)C1=O)c1ccccc1` (stereo partly drawn) [Example 207, (3R)-3-(2-(4-(2-benzamidoethyl)-2,3-dioxopiperazine-1-carboxamido)-2-(2-chloro-5-fluoro-3,4-dihydroxyphenyl)acetamido)-7-fluoro-2-hydroxy-3,4-dihydro-2H-benzo[e][1,2]oxaborinine-8-carboxylic acid], the IC50 in assay [1] was over 250 µM. The MIC was under 1 µg/mL in the assay with P. aeruginosa ATCC 35151, 2 to 4 µg/mL (≈ 2.74 to 5.48 µM) in the assay on P. aeruginosa CDC-0054, 8 to 16 µg/mL (≈ 11 to 21.9 µM) with A. baumannii CDC-0036 and 16 to 32 µg/mL (≈ 21.9 to 43.8 µM) in the assay with N. gonorrhoeae WHO Q.
Take `O=C(NCCN1CCN(C(=O)NC(C(=O)N[C@H]2Cc3ccc(F)c(C(=O)O)c3OB2O)c2cc(F)c(O)c(O)c2Cl)C(=O)C1=O)c1cccc(O)c1` (stereo partly drawn) [Example 215, (3R)-3-(2-(2-chloro-5-fluoro-3,4-dihydroxyphenyl)-2-(4-(2-(3-hydroxybenzamido)ethyl)-2,3-dioxopiperazine-1-carboxamido)acetamido)-7-fluoro-2-hydroxy-3,4-dihydro-2H-benzo[e][1,2]oxaborinine-8-carboxylic acid]: the IC50 in assay [1] is over 250 µM. In addition, the MIC was under 1 µg/mL in the assay with P. aeruginosa ATCC 35151, 8 to 16 µg/mL (≈ 10.7 to 21.5 µM) in the assay on P. aeruginosa CDC-0054, 8 to 16 µg/mL (≈ 10.7 to 21.5 µM) in the assay with A. baumannii CDC-0036 and over 64 µg/mL with N. gonorrhoeae WHO Q.
As to `O=C(NCCN1CCN(C(=O)NC(C(=O)N[C@H]2Cc3ccc(F)c(C(=O)O)c3OB2O)c2cc(F)c(O)c(O)c2Cl)C(=O)C1=O)c1nccs1` (stereo partly drawn) [Example 218, (3R)-3-(2-(2-chloro-5-fluoro-3,4-dihydroxyphenyl)-2-(2,3-dioxo-4-(2-(thiazole-2-carboxamido)ethyl)piperazine-1-carboxamido)acetamido)-7-fluoro-2-hydroxy-3,4-dihydro-2H-benzo[e][1,2]oxaborinine-8-carboxylic acid], the IC50 in assay [1] is over 250 µM. For the same compound, the MIC was under 1 µg/mL in the assay with P. aeruginosa ATCC 35151, 8 to 16 µg/mL (≈ 10.9 to 21.7 µM) in the assay with P. aeruginosa CDC-0054, 8 to 16 µg/mL (≈ 10.9 to 21.7 µM) with A. baumannii CDC-0036 and over 64 µg/mL with N. gonorrhoeae WHO Q.
Consider `O=C(NCCN1CCN(C(=O)NC(C(=O)N[C@H]2Cc3ccc(F)c(C(=O)O)c3OB2O)c2cc(F)c(O)c(O)c2Cl)C(=O)C1=O)Nc1ccc(O)cc1` (stereo partly drawn) [Example 219, (3R)-3-(2-(2-chloro-5-fluoro-3,4-dihydroxyphenyl)-2-(4-(2-(3-(4-hydroxyphenyl)ureido)ethyl)-2,3-dioxopiperazine-1-carboxamido)acetamido)-7-fluoro-2-hydroxy-3,4-dihydro-2H-benzo[e][1,2]oxaborinine-8-carboxylic acid], for which, in assay [1], the IC50 is over 250 µM. Besides, the MIC with P. aeruginosa ATCC 35151 was under 1 µg/mL; in the assay with P. aeruginosa CDC-0054, 8 to 16 µg/mL (≈ 10.5 to 21 µM); in the assay with A. baumannii CDC-0036, 8 to 16 µg/mL (≈ 10.5 to 21 µM); with N. gonorrhoeae WHO Q it was over 64 µg/mL.
On to `O=C(CN1CCN(C(=O)NC(C(=O)N[C@H]2Cc3ccc(F)c(C(=O)O)c3OB2O)c2cc(F)c(O)c(O)c2Cl)C(=O)C1=O)NCc1ccc(O)cc1` (stereo partly drawn) [Example 236, (3R)-3-(2-(2-chloro-5-fluoro-3,4-dihydroxyphenyl)-2-(4-(2-((4-hydroxybenzyl)amino)-2-oxoethyl)-2,3-dioxopiperazine-1-carboxamido)acetamido)-7-fluoro-2-hydroxy-3,4-dihydro-2H-benzo[e][1,2]oxaborinine-8-carboxylic acid], for which the IC50 in assay [1] is over 250 µM. For the same compound, the MIC in the assay on A. baumannii CDC-0036 was 8 to 16 µg/mL (≈ 10.7 to 21.5 µM).
